This assay addresses T1, Histone-lysine N-methyltransferase EHMT2 (Homo sapiens, UniProt Q96KQ7).
T1 sequence (Q96KQ7 whole entry): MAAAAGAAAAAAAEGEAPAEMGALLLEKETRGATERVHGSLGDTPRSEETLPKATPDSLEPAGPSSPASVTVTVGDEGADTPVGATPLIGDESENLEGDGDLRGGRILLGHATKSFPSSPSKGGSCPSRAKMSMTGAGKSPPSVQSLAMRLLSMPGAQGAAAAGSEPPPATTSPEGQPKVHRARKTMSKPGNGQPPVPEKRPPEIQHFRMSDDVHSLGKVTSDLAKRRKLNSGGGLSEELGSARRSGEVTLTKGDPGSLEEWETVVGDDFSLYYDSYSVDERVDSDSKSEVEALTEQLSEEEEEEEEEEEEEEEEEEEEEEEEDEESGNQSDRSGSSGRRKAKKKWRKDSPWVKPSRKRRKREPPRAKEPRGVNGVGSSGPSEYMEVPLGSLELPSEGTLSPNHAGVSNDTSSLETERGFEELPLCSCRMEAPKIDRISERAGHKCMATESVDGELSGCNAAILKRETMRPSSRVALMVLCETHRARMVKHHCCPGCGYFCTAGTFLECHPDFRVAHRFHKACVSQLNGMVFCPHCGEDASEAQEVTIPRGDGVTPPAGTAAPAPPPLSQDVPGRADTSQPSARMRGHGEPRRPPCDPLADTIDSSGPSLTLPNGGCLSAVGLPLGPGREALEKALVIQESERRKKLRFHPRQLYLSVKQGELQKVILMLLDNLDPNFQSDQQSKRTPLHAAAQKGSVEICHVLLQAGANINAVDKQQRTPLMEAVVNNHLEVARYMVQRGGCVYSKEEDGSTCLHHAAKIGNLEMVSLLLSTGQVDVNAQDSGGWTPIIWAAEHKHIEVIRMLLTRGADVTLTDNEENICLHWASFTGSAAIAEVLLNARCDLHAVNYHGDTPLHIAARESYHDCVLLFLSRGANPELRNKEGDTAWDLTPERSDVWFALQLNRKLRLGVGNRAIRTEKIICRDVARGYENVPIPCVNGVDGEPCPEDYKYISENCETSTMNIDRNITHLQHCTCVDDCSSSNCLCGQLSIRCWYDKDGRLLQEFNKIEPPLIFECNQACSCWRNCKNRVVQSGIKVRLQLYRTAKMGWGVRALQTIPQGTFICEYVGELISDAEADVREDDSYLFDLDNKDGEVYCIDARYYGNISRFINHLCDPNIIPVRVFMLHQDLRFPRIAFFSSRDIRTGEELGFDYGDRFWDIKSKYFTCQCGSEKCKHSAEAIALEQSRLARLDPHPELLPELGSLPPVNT
The assay is described as follows: Enzymatic Assay. The conditions noted are these: pH 8.5; 25 °C. Here is the method:
Biochemical activity of G9a was measured as described [Kubicek et al., Mol. Cell, 25:473-481]. Assays were performed in white, opaque 384-well plates coated with Neutravidin (Pierce Biotechnology). Brd 4770 was used as a positive control. Test compounds were diluted to 12 μg/ml in Baffer A (50 mM Tris-HCl pH 8.5 containing 4% DMSO) and 10 μl was dispensed into the wells. Blank and control wells received only compound buffer. GST-G9a at 10 μg/ml and SAM at 40 μM were diluted in Buffer B (50 mM Tris HCl pH 8.5/10 mM DTT) and added in a volume of 20 μL. Blank wells received Tris/DTT buffer only. The reactions were initiated by the addition of 800 nM H3 (1-20)-cysbiotin substrate in Buffer C (50 mM Tris pH 8.5) in a volume of 10 μL, and incubated at room temperature for 60 min. The plates were washed 3 times with 100 μL of Wash Buffer (50 mM Tris pH 7.4, 150 mM NaCl, 0.05% Tween 20, 0.2% BSA). Next, 50 μl of Fluoroimmunoassay (FI) Buffer (50 mM Tris HCl pH 7.8, 150 mM NaCl, 0.05% Tween 40, 25 μM DTPA, 0.2% BSA, 0.05% BGG) containing 5 ng α-2X-di-meth H3-K9 and 5 ng goat anti-rabbit Eu chelate (Perkin Elmer Life Sciences) was added to all wells of the plate, and the plate was incubated for an additional hour at room temperature. The plates were washed 3 times with 100 μL of Wash Buffer, and 50 μL of Enhancement Solution (Perkin Elmer Life Sciences) was added to each well. Time resolved fluorescence was measured after 45 min on a Viewlux Microplate Imager (Perkin Elmer Life Sciences) imaging for 15 s with a 354 μs window, 400 μs delay, excitation at 360 nm, and emission at 618 nm.

Where a SMILES comes first, the peptide text is derived from it. [ ]: non-standard residue; d: D form. pY = N[C@@H](Cc1ccc(OP(=O)(O)O)cc1)C(=O)O

For orientation: IC50 means the concentration that gives 50% inhibition. The molecule `O=C(Nc1ccc2c(c1)nc(-c1ccccc1)n2CCCc1ccccc1)c1ccc(-c2ccccc2)cc1` [N-(2-phenyl-1-(3-phenylpropyl)-1H-benzo[d]imidazol-5-yl)-[1,1'-biphenyl]-4-carboxamide (24)] showed a concentration for half-maximal inhibition (IC50) of 12.2 µM.

The molecule `O=S(=O)(Nc1ccc2c(c1)nc(-c1ccccc1)n2CCCc1ccccc1)c1ccc(C(F)(F)F)cc1` [N-(2-phenyl-1-(3-phenylpropyl)-1H-benzo[d]imidazol-5-yl)-4-(trifluoromethyl)benzenesulfonamide (15)] returned an IC50 of 16 µM.

On to `COc1ccccc1S(=O)(=O)Nc1ccc2c(c1)nc(-c1ccccc1)n2CCCc1ccccc1` [2-Methoxy-N-(2-phenyl-1-(3-phenylpropyl)-1H-benzo[d]imidazol-5-yl)benzenesulfonamide (14)], for which the IC50 turned out to be 2.63 µM.

As to `O=S(=O)(Nc1ccc2c(c1)nc(-c1ccccc1)n2CCCc1ccccc1)c1ccc(F)cc1` [4-Fluoro-N-(2-phenyl-1-(3-phenylpropyl)-1H-benzo[d]imidazol-5-yl)benzenesulfonamide (17)], the IC50 is 16.1 µM.

With `CC(C)C[C@H](NC(=O)[C@H](CC(N)=O)NC(=O)[C@@H](N)CC(=O)O)C(=O)N[C@@H](Cc1ccc(O)cc1)C(=O)N[C@@H](Cc1ccc(OP(=O)(O)O)cc1)C(=O)N[C@@H](Cc1c[nH]c2ccccc12)C(=O)N[C@@H](CC(=O)O)C(=O)N[C@@H](CCC(N)=O)C(=O)N[C@@H](CC(=O)O)C(=O)N1CCC[C@H]1C(=O)N1CCC[C@H]1C(=O)O` [ErbB2-pep] (H-DNLY[pY]WDQDPP-OH), 15.3 µM corresponded to half-maximal inhibition (IC50).

`CC(C)(C)c1ccc(S(=O)(=O)Nc2ccc3nc(-c4ccccc4)oc3c2)cc1` [4-(tert-Butyl)-N-(2-phenylbenzo[d]oxazol-6-yl)benzenesulfonamide (9)]: the IC50 turned out to be 36.3 µM. This IC50 lies about 2.4-fold higher than the previous one.

`O=C(Nc1ccc2nc(-c3ccccc3)oc2c1)c1ccccc1F` [2-Fluoro-N-(2-phenylbenzo[d]oxazol-6-yl)benzamide (11)] registered an IC50 above 40 µM.

As for `CC(C)(C)c1ccc(S(=O)(=O)Nc2ccc3c(c2)nc(-c2ccccc2)n3CCCc2ccccc2)cc1` [4-(tert-Butyl)-N-(2-phenyl-1-(3-phenylpropyl)-1H-benzo[d]imidazol-5-yl)benzenesulfonamide (20)], the midpoint of inhibition, the IC50, lay at 16.3 µM. That is a double-digit micromolar value.

`O=C(Nc1ccc2c(c1)nc(-c1ccccc1)n2CCCc1ccccc1)c1cccc(Br)c1` [3-Bromo-N-(2-phenyl-1-(3-phenylpropyl)-1H-benzo[d]imidazol-5-yl)benzamide (22)] showed an IC50 of 1.32 µM.

The molecule `O=C(Nc1ccc2nc(-c3ccccc3)oc2c1)c1cccc(Br)c1` [3-Bromo-N-(2-phenylbenzo[d]oxazol-6-yl)benzamide (12)] yielded an IC50 of 15.3 µM.

For the molecule `CC(C)[C@H](NC(=O)[C@H](CO)NC(=O)[C@H](CO)NC(=O)[C@@H]1CCCN1)C(=O)N[C@@H](Cc1ccc(OP(=O)(O)O)cc1)C(=O)N[C@H](C(=O)N1CCC[C@H]1C(=O)N[C@@H](CC(=O)O)C(=O)N[C@@H](CCC(=O)O)C(=O)N[C@@H](Cc1c[nH]c2ccccc12)C(=O)N[C@@H](CCC(=O)O)C(=O)O)C(C)C` [IR-pep] (H-PSSV[pY]VPDEWE-OH), half-maximal inhibition (IC50) required 26.2 µM.

`CC(C)[C@H](NC(=O)[C@@H](N)CCC(=O)O)C(=O)N[C@@H](CO)C(=O)N[C@@H](Cc1ccccc1)C(=O)N[C@@H](Cc1ccc(OP(=O)(O)O)cc1)C(=O)N[C@@H](Cc1ccc(O)cc1)C(=O)N[C@@H](CO)C(=O)N[C@@H](CCC(=O)O)C(=O)N[C@@H](CCC(=O)O)C(=O)N[C@@H](CC(N)=O)C(=O)N[C@@H](CCCCN)C(=O)O` [IGF1R-pep] (H-EVSF[pY]YSEENK-OH): the IC50 was determined as 19 µM. The IC50 values of the last two molecules are within 1.5-fold of each other.

For the molecule `N#Cc1ccc(S(=O)(=O)Nc2ccc3c(c2)nc(-c2ccccc2)n3CCCc2ccccc2)cc1` [4-Cyano-N-(2-phenyl-1-(3-phenylpropyl)-1H-benzo[d]imidazol-5-yl)benzenesulfonamide (18)], inhibition was half-maximal at 18.8 µM (IC50).

`COc1ccccc1C(=O)Nc1ccc2c(c1)nc(-c1ccccc1)n2CCCc1ccccc1` [2-Methoxy-N-(2-phenyl-1-(3-phenylpropyl)-1H-benzo[d]imidazol-5-yl)benzamide (23)]: the IC50 was found to be 1.75 µM. This IC50 is about 11-fold lower than that of the molecule before.

In the case of `O=S(=O)(Nc1ccc2c(c1)nc(-c1ccccc1)n2CCCc1ccccc1)c1ccc(OC(F)(F)F)cc1` [N-(2-phenyl-1-(3-phenylpropyl)-1H-benzo[d]imidazol-5-yl)-4-(trifluoromethoxy)benzenesulfonamide (16)], the half-maximal inhibitory concentration (IC50) was determined as 21.9 µM.

Molecule `N#Cc1ccc(S(=O)(=O)Nc2ccc3nc(-c4ccccc4)oc3c2)cc1` [4-Cyano-N-(2-phenylbenzo[d]oxazol-6-yl)benzenesulfonamide (7)] gave an IC50 of 30.4 µM. The IC50 values of the last two molecules are within 1.5-fold of each other.

`O=S(=O)(Nc1ccc2c(c1)nc(-c1ccccc1)n2CCCc1ccccc1)c1ccccc1Br` [2-Bromo-N-(2-phenyl-1-(3-phenylpropyl)-1H-benzo[d]imidazol-5-yl)benzenesulfonamide (19)] came in with an IC50 of 20.8 µM. The IC50 values of the last two molecules are within 1.5-fold of each other.

Turning to `O=S(=O)(Nc1ccc2nc(-c3ccccc3)oc2c1)c1ccccc1Br` [2-Bromo-N-(2-phenylbenzo[d]oxazol-6-yl)benzenesulfonamide (8)], the IC50 is above 40 µM.

The molecule `COC(=O)c1ccc2c(c1)nc(NC(=O)c1ccccc1)n2CCCc1ccccc1` [Brd4470] had an IC50 of 6.1 µM.

For `COc1ccccc1C(=O)Nc1ccc2nc(-c3ccccc3)oc2c1` [2-Methoxy-N-(2-phenylbenzo[d]oxazol-6-yl)benzamide (10)], the IC50 is 12.8 µM. This IC50 lies about 2.1-fold higher than the previous one.

Consider `O=[N+]([O-])c1cccc(S(=O)(=O)Nc2ccc3c(c2)nc(-c2ccccc2)n3CCCc2ccccc2)c1` [3-Nitro-N-(2-phenyl-1-(3-phenylpropyl)-1H-benzo[d]imidazol-5-yl)benzenesulfonamide (13)], for which the IC50 is 35.4 µM.

As to `O=C(Nc1ccc2c(c1)nc(-c1ccccc1)n2CCCc1ccccc1)c1ccccc1F` [2-Fluoro-N-(2-phenyl-1-(3-phenylpropyl)-1H-benzo[d]imidazol-5-yl)benzamide (21)], 9.59 µM corresponded to half-maximal inhibition (IC50).

Source of the values: BindingDB's records for doi:10.1016/j.bioorg.2017.04.005 (Shenyang Pharmaceutical University, 2017).
